Test results: patent US20150299125A1, “PRODRUG BIPYRIDYLAMINOPYRIDINES AS SYK INHIBITORS” (MERCK SHARP & DOHME CORP., priority 2012, published 2015)
In brackets after ≈: the same amount, converted by molar mass. Where two headings read alike, the source gives them in different places.

Key:
[1] = biological target: T1, recombinant human GST-Syk (Homo sapiens, UniProt P43405); assay: Homogeneous Time-Resolved Fluorescence (HTRF) assay for the recombinant human Syk enzyme; format: biochemical; conditions: ATP 25 μM
T1 construct: purchased Carna Biosciences 08-176
Outline: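 Recombinant GST-hSyk phosphorylates a biotinylated peptide for 45 min at room temperature. Quenched with EDTA buffer containing 2 nM Eu-anti-phosphotyrosine antibody and 70 nM SA-APC; HTRF read after 30 min.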

[2] = Solubility in biorelevant fasted state simulated intestinal fluid (FaSSIF); format: physicochemical; conditions: 25 °C, fassif, kinetic from dmso stock, Solubility
Method: Solubility in Biorelevant Fasted State Simulated Intestinal Fluid (FaSSIF):
A 10 mM DMSO stock solution of compound to be tested is used. A 100 μM standard solution is generated by diluting 2.5 μL of the 10 mM stock solution with 247.5 μL of diluent (10% DMSO/10% MeCN/80% MeOH, v/v/v). A solubility solution is generated by diluting 5 μL of the 10 mM stock solution with 245 μL of FaSSIF (maximum solubility approximately 200 μM). […] The equilibrated solubility solution is filtered by centrifugation (3 minutes at 4000 rpm) using a 0.45 µm filter with a polypropylene membrane. The standard solution and the filtered equilibrated solubility solution are analyzed by HPLC/DAD. The solubility value is calculated by the following equation:
Solubility=(Peak area of sample/Peak area of standard)(Standard concentration)

[3] = recombinant human GST-Syk 5 pM, read-out: IC50

| SMILES | IC50 [1, 3] | solubility [2] | IC50 ([1]; IC50, recombinant human GST-Syk 5 pM) |
| --- | --- | --- | --- |
| CC[N+](COC(=O)[C@H]1CC[C@H]([C@@](C)(O)c2ccc(-c3cc(C)cc(Nc4cc(C(F)F)ccn4)n3)cn2)CC1)(C(C)C)C(C)C [Example 5-3, N-{[({trans-4-[(1R)-1-(6-{[4-(difluoromethyl)pyridin-2-yl]amino}-4-methyl-2,3′-bipyridin-6′-yl)-1-hydroxyethyl]cyclohexyl}carbonyl)oxy]methyl}-N-ethyl-N-(1-methylethyl)propan-2-aminium] | 1.9 nM | 175 µM | – |
| Cc1cc(Nc2cc(C(F)F)ccn2)nc(-c2ccc([C@](C)(O)[C@H]3CC[C@H](C(=O)OC[N+](C)(C)CCN(C)C)CC3)nc2)c1 [Example 5-5, N-{[({trans-4-[(1R)-1-(6-{[4-(difluoromethyl)pyridin-2-yl]amino}-4-methyl-2,3′-bipyridin-6′-yl)-1-hydroxyethyl]cyclohexyl}carbonyl)oxy]methyl}-2-(dimethylamino)-N,N-dimethylethanaminium] | 1.3 nM | 53 µM | – |
| CCCC[N+](CC)(CC)COC(=O)[C@H]1CC[C@H]([C@@](C)(O)c2ccc(-c3cc(C)cc(Nc4cc(C(F)F)ccn4)n3)cn2)CC1 [Example 5-6, N-{[({trans-4-[(1R)-1-(6-{[4-(difluoromethyl)pyridin-2-yl]amino}-4-methyl-2,3′-bipyridin-6′-yl)-1-hydroxyethyl]cyclohexyl}carbonyl)oxy]methyl}-N,N-diethylbutan-1-aminium] | 1.1 nM | 152 µM | – |
| CC[N+](CC)(CCCC(C)O)COC(=O)[C@H]1CC[C@H]([C@@](C)(O)c2ccc(-c3cc(C)cc(Nc4cc(C(F)F)ccn4)n3)cn2)CC1 (stereo partly drawn) [Example 5-7, N-{[({trans-4-[(1R)-1-(6-{[4-(difluoromethyl)pyridin-2-yl]amino}-4-methyl-2,3′-bipyridin-6′-yl)-1-hydroxyethyl]cyclohexyl}carbonyl)oxy]methyl}-N,N-diethyl-4-hydroxypentan-1-aminium] | 1.3 nM | 200 µM | – |
| CCC[N+](CCC)(CCC)COC(=O)[C@H]1CC[C@H]([C@@](C)(O)c2ccc(-c3cc(C)cc(Nc4cc(C(F)F)ccn4)n3)cn2)CC1 [Example 5-9, N-{[({trans-4-[(1R)-1-(6-{[4-(difluoromethyl)pyridin-2-yl]amino}-4-methyl-2,3′-bipyridin-6′-yl)-1-hydroxyethyl]cyclohexyl}carbonyl)oxy]methyl}-N,N-dipropylpropan-1-aminium] | 1 nM | 137 µM | – |
| CC[N+](CC)(CC)COC(=O)[C@H]1CC[C@H]([C@@](C)(O)c2ccc(-c3cc(C)cc(Nc4cc(C(F)F)ccn4)n3)cn2)CC1 [Example 5-10, N-{[({trans-4-[(1R)-1-(6-{[4-(difluoromethyl)pyridin-2-yl]amino}-4-methyl-2,3′-bipyridin-6′-yl)-1-hydroxyethyl]cyclohexyl}carbonyl)oxy]methyl}-N,N-diethylethanaminium] | 1.4 nM | 138 µM | – |
| Cc1cc(Nc2cc(C(F)F)ccn2)nc(-c2ccc([C@](C)(O)[C@H]3CC[C@H](C(=O)OC[N+](C)(C)C4CCCCC4)CC3)nc2)c1 [Example 5-11, N-{[({trans-4-[(1R)-1-(6-{[4-(difluoromethyl)pyridin-2-yl]amino}-4-methyl-2,3′-bipyridin-6′-yl)-1-hydroxyethyl]cyclohexyl}carbonyl)oxy]methyl}-N,N-dimethylcyclohexanaminium] | 0.9 nM | 200 µM | – |
| CCN(CC)C(=O)N1CC[N+](C)(COC(=O)[C@H]2CC[C@H]([C@@](C)(O)c3ccc(-c4cc(C)cc(Nc5cc(C(F)F)ccn5)n4)cn3)CC2)CC1 [Example 5-12, 4-(diethylcarbamoyl)-1-{[({trans-4-[(1R)-1-(6-{[4-(difluoromethyl)pyridin-2-yl]amino}-4-methyl-2,3′-bipyridin-6′-yl)-1-hydroxyethyl]cyclohexyl}carbonyl)oxy]methyl}-1-methylpiperazin-1-ium] | < 0.5 nM | 55 µM | – |
| CC[N+]1(COC(=O)[C@H]2CC[C@H]([C@@](C)(O)c3ccc(-c4cc(C)cc(Nc5cc(C(F)F)ccn5)n4)cn3)CC2)CCCCC1 [Example 5-14, 1-{[({trans-4-[(1R)-1-(6-{[4-(difluoromethyl)pyridin-2-yl]amino}-4-methyl-2,3′-bipyridin-6′-yl)-1-hydroxyethyl]cyclohexyl}carbonyl)oxy]methyl}-1-ethylpiperidinium] | 2.3 nM | 200 µM | – |
| CC(=O)C1CC[N+](C)(COC(=O)[C@H]2CC[C@H]([C@@](C)(O)c3ccc(-c4cc(C)cc(Nc5cc(C(F)F)ccn5)n4)cn3)CC2)CC1 (stereo partly drawn) [Example 5-17, 4-acetyl-1-{[({trans-4-[(1R)-1-(6-{[4-(difluoromethyl)pyridin-2-yl]amino}-4-methyl-2,3′-bipyridin-6′-yl)-1-hydroxyethyl]cyclohexyl}carbonyl)oxy]methyl}-1-methylpiperidinium] | 1.6 nM | 45 µM | – |
| Cc1cc(Nc2cc(C(F)F)ccn2)nc(-c2ccc([C@](C)(O)[C@H]3CC[C@H](C(=O)OC[N+](C)(C)Cc4ccccc4)CC3)nc2)c1 [Example 5-20, N-benzyl[({trans-4-[(1R)-1-(6-{[4-(difluoromethyl)pyridin-2-yl]amino}-4-methyl-2,3′-bipyridin-6′-yl)-1-hydroxyethyl]cyclohexyl}carbonyl)oxy]-N,N-dimethylmethanaminium] | 0.8 nM | 86 µM | – |
| Cc1cc(Nc2cc(C(F)F)ccn2)nc(-c2ccc([C@](C)(O)[C@H]3CC[C@H](C(=O)OC[N+](C)(C)CCOCCN(C)C)CC3)nc2)c1 [Example 5-23, N-{[({trans-4-[(1R)-1-(6-{[4-(difluoromethyl)pyridin-2-yl]amino}-4-methyl-2,3′-bipyridin-6′-yl)-1-hydroxyethyl]cyclohexyl}carbonyl)oxy]methyl}-2-[2-(dimethylamino)ethoxy]-N,N-dimethylethanaminium] | 1.1 nM | 98 µM | – |
| Cc1cc(Nc2cc(C(F)F)ccn2)nc(-c2ccc([C@](C)(O)[C@H]3CC[C@H](C(=O)OC[N+](C)(C)CCOC(=O)c4ccccc4)CC3)nc2)c1 [Example 5-25, N-{[({trans-4-[(1R)-1-(6-{[4-(difluoromethyl)pyridin-2-yl]amino}-4-methyl-2,3′-bipyridin-6′-yl)-1-hydroxyethyl]cyclohexyl}carbonyl)oxy]methyl}-N,N-dimethyl-2-[(phenylcarbonyl)oxy]ethanaminium] | 0.7 nM | 155 µM | – |
| Cc1cc(Nc2cc(C(F)F)ccn2)nc(-c2ccc([C@](C)(O)[C@H]3CC[C@H](C(=O)OC[N+]4(C)CCN(C)CC4)CC3)nc2)c1 [Example 5-26, 1-{[({trans-4-[(1R)-1-(6-{[4-(difluoromethyl)pyridin-2-yl]amino}-4-methyl-2,3′-bipyridin-6′-yl)-1-hydroxyethyl]cyclohexyl}carbonyl)oxy]methyl}-1,4-dimethylpiperazin-1-ium] | 2 nM | 68 µM | – |
| Cc1cc(Nc2cc(C(F)F)ccn2)nc(-c2ccc([C@](C)(O)[C@H]3CC[C@H](C(=O)OC[N+]4(C)CCC(O)CC4)CC3)nc2)c1 (stereo partly drawn) [Example 5-27, 1-{[({trans-4-[(1R)-1-(6-{[4-(difluoromethyl)pyridin-2-yl]amino}-4-methyl-2,3′-bipyridin-6′-yl)-1-hydroxyethyl]cyclohexyl}carbonyl)oxy]methyl}-4-hydroxy-1-methylpiperidinium] | 1.5 nM | 164 µM | – |
| Cc1cc(Nc2cc(C(F)F)ccn2)nc(-c2ccc([C@](C)(O)[C@H]3CC[C@H](C(=O)OC[N+]4(C)CCC(CO)CC4)CC3)nc2)c1 (stereo partly drawn) [Example 5-29, 1-{[({trans-4-[(1R)-1-(6-{[4-(difluoromethyl)pyridin-2-yl]amino}-4-methyl-2,3′-bipyridin-6′-yl)-1-hydroxyethyl]cyclohexyl}carbonyl)oxy]methyl}-4-(hydroxymethyl)-1-methylpiperidinium] | < 0.5 nM | 176 µM | – |
| Cc1cc(Nc2cc(C(F)F)ccn2)nc(-c2ccc([C@](C)(O)[C@H]3CC[C@H](C(=O)OCCC[S+](C)[O-])CC3)nc2)c1 (stereo partly drawn) [Example 7-4, 3-(methylsulfinyl)propyl trans-4-[(1R)-1-(6-{[4-(difluoromethyl)pyridin-2-yl]amino}-4-methyl-2,3′-bipyridin-6′-yl)-1-hydroxyethyl]cyclohexane carboxylate] | 4.3 nM | 141 µM (≈ 82.7 µg/mL) | – |
| Cc1cc(Nc2cc(C(F)F)ccn2)nc(-c2ccc([C@](C)(O)[C@H]3CC[C@H](C(=O)O[C@H]4CC[C@H](N(C)C)CC4)CC3)nc2)c1 [Example 9-1, Trans-4-(Dimethylamino)cyclohexyl trans-4-[(1R)-1-(6-{[4-(difluoromethyl)pyridin-2-yl]amino}-4-methyl-2,3′-bipyridin-6′-yl)-1-hydroxyethyl]cyclohexanecarboxylate] | 3.2 nM | 162 µM (≈ 98.5 µg/mL) | – |
| Cc1cc(Nc2cc(C(F)F)ccn2)nc(-c2ccc([C@](C)(O)[C@H]3CC[C@H](C(=O)O)CC3)nc2)c1 [PrepEx 1-5, trans-4-[(1R)-(6-{[4-(Difluoromethyl)pyridin-2-yl]amino}-4-methyl-2,3′-bipyridin-6′-yl)-1-hydroxyethyl]cyclohexanecarboxylic acid] | – | < 3 µM | < 0.5 nM |
